Measured values as given in the NIST ThermoML archive (doi:10.1021/je800837z).
± gives the expanded uncertainty stated by the source.

Settings: Crystal; DTA

Work on `CCN1CCN(C(=O)N[C@H](C(=O)N[C@H]2C(=O)N3C(C(=O)[O-])=C(CSc4nnnn4C)CS[C@@H]23)c2ccc(O)cc2)C(=O)C1=O.[Na+]` yielded a Normal melting temperature of 180.00 ± 1.1 °C.
